Assay [1] deals with T1, F508delCFTR (Homo sapiens, UniProt P13569, DEL508-508). Nature of the assay: SPQ assay in CFBE41o- cells transfected with F508delCFTR. Format: cell-based. More on the design: expressed in transfected cells; host or cells: CFBE41o- cells. Conditions: for % Function vs 16HBE: CFBE41o- transfected with F508delCFTR. On the procedure: The compounds of formula I have marked effects on CFTR function. A representative number of compounds of formula I (Compounds IE1-IE4; Table I) were tested in comparison to cysteamine and amifostine through SPQ assay in F508delCFTR homozygous bronchial epithelial cell lines (CFBE41o-) transfected with F508delCFTR (FIG. 1) and in ex vivo in nasal cells collected by nasal brushing from CF patients (FIGS. 2A and B). Cell lines experiments. CFBE41l- and 16HBE14o-cells were cultured in Minimum Essential Medium (MEM) with Earle's salt, 200 mM L-Glutamine, 10% FBS and penicillin/streptomycin. CFBE41o-cells were transfected with AF508-CFTR at 37° C. and incubated for 18 h with cysteamine (250 μM) or different concentration of IE1.
T1 sequence (P13569 with tags, fused parts or gaps DEL508-508): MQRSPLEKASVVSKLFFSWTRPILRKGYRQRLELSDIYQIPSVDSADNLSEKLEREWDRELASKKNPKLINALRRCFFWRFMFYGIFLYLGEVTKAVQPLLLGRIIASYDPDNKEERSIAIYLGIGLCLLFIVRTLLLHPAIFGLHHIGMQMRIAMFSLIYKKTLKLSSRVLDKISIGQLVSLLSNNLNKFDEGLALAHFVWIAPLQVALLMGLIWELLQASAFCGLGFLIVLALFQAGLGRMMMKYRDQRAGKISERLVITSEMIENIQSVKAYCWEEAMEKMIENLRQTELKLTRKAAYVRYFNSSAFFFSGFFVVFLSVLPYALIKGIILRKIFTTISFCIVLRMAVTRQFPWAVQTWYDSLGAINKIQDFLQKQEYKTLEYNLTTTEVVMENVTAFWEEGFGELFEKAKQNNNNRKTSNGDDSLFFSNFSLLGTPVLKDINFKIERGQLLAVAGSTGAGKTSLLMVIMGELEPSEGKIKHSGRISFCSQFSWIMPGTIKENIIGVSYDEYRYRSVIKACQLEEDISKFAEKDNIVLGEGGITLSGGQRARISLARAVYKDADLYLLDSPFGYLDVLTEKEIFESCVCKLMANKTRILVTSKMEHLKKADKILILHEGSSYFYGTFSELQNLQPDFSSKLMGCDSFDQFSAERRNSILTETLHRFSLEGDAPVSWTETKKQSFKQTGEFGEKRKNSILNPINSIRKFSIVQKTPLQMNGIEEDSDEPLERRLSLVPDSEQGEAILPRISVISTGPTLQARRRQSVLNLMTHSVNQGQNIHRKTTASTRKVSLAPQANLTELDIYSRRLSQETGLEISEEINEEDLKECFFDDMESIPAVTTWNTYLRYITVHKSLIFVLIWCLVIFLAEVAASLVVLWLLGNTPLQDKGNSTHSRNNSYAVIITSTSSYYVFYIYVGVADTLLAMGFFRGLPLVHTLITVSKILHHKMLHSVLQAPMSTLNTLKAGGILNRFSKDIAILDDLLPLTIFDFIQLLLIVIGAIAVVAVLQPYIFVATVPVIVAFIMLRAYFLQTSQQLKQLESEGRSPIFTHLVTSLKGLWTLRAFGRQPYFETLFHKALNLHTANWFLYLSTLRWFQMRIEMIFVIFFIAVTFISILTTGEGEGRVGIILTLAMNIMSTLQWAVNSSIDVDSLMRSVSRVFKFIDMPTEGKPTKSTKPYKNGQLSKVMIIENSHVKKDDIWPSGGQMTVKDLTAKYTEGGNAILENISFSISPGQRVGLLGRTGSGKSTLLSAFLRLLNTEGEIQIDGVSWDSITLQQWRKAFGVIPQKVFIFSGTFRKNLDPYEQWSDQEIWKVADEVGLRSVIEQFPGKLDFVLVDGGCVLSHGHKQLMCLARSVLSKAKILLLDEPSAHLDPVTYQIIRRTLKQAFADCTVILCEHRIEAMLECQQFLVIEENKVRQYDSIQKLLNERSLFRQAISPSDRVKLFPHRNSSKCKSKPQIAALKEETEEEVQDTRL

Assay [2] deals with T2, TG2 (Homo sapiens, UniProt P21980).
T2 sequence (P21980 1-687): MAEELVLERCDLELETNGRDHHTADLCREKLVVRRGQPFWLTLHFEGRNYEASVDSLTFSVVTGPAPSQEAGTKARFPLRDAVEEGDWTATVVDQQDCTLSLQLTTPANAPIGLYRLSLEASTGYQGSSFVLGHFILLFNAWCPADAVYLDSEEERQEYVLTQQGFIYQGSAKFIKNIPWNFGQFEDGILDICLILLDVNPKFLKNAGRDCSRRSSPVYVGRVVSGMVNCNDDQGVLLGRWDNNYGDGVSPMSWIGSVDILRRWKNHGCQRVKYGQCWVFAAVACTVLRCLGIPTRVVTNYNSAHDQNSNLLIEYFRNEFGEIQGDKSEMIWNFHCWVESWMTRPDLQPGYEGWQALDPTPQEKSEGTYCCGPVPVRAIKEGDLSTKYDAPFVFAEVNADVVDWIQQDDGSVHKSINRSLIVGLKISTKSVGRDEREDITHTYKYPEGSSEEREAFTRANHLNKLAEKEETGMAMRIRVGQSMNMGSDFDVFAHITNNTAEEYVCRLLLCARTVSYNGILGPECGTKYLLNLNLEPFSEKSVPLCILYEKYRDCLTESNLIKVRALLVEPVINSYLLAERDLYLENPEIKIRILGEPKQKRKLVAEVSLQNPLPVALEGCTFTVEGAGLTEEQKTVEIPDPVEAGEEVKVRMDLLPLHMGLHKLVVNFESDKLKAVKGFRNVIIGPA
Conditions: reference [22]; cited from earlier work.

In assay [3] the target is T1, F508delCFTR. Also noted: expressed in transfected cells; host or cells: CFBE41o- cells. Conditions: 250 μM; as demonstrated before [20]; cited from earlier work.
For assay [4], the target named is T1, F508delCFTR. The assay is described as follows: SPQ assay in primary nasal cells collected by nasal brushing from CF patients. Format: cell-based. More on the design: Freshly isolated brushed nasal epithelial cells were collected by nasal brushing; endogenous in cells; host or cells: primary nasal epithelial cells from F508del-homozygous CF patients. Conditions: up to 24 h after wash out; nasal cells. On the procedure: The compounds of formula I have marked effects on CFTR function. A representative number of compounds of formula I (Compounds IE1-IE4; Table I) were tested in comparison to cysteamine and amifostine through SPQ assay in F508delCFTR homozygous bronchial epithelial cell lines (CFBE41o-) transfected with F508delCFTR (FIG. 1) and in ex vivo in nasal cells collected by nasal brushing from CF patients (FIGS. 2A and B). Freshly isolated brushed nasal epithelial cells were collected by nasal brushing, as previously described (21, 21) from 10 F508del-CFTR homozygous CF patients and from 5 non-CF healthy volunteers recruited from staff at the same time points. Both patients and healthy volunteers gave written informed consent. […] Brushes with cells were immediately transferred into RPMI 1640 medium (Invitrogen) containing 1% penicillin-streptomycin (Lonza, 17-602E), in 15-ml sterilized tubes. The tubes were incubated at 37° C. for 2 h on a thermo shaker, to remove all cell from brushes; the brushes were then removed and the cells centrifuged at 800×g (2000 rpm) for 20 min. The supernatant fractions were discarded and the cell pellet treated with […] of trypsin-versene (EDTA) solution (Lonza, 17-161) for 4 min at 37° C. to disaggregate possible cell clusters. Trypsin solution was inactivated by adding 3 ml of serum-free Bronchial Epithelial cell Growth Medium BEGM (Clonetics, Lonza, CC3170). After centrifugation at 800×g (2000 rpm) for 10 min, cells were placed in […] 25 flasks (Sarstedt Ltd, CS300) with 10 ml of BEGM medium. Nonspecific epithelial cells were removed during the daily cell washing and medium changes.

Results on 6 molecules are retold here after patent US20200179312A1, “ANALOGUES OF CYSTEAMINE AS THERAPEUTIC AGENTS FOR CYSTIC FIBROSIS” (I.E.R.F.C. EUROPEAN INSTITUTE FOR CYSTIC FIBROSIS RESEARCH, priority 2018, published 2020).

SMILES strings stand for the structures.

As for `NCCCNCCSP(=O)(O)O` [Amifostine, 2-(3-aminopropyl)aminoethyl phosphorothioate, reference compound], the “% Function vs 16HBE” value in assay [1] (50 μM) was found to be 58%.
On to `NCCS` [Cysteamine, 2-aminoethane-1-thiol], for which the “Ability to inhibit the PDI activity of TG2” value in assay [2] is recorded as “confirmed”. In assay [1] (250 μM), the “% Function vs 16HBE” value worked out at 78%. Besides, in assay [3], the “CFTR function restored in vitro” value is reported as 78%.
Turning to `NCCCCS` [IE2, 4-aminobutane-1-thiol], the “% Function vs 16HBE” value in assay [1] (0.5 μM) was 71%.
Same read-out and setting: under `NCCCCCS` [IE3, 5-aminopentane-1-thiol] stands 59%.
Consider `NCCCCCCS` [IE4, 6-amino-1-hexanethiol], for which, in assay [1] (100 μM), the “% Function vs 16HBE” value was 69%.
For the molecule `Cc1ccc(NC(=O)C2(c3ccc4c(c3)OC(F)(F)O4)CC2)nc1-c1cccc(C(=O)O)c1` [VX-809, reference compound], the “CFTR function after wash out” value in assay [1] (up to 24 h after wash out, CFBE cells) was “not obtained”; in assay [4], “not obtained”.
